In one data set the target is T1, telomerase (Homo sapiens, UniProt O14746).
T1 construct: assayed for telomerase activity using MGC-803 cells extract; endogenous in cells; host or cells: MGC-803 cell extract
In words: Telomerase activity assay using MGC-803 cells extract. Format: biochemical. The conditions noted are these: mean ± SD.

By IC50 is commonly meant the concentration that inhibits the measured activity by half. By melting point is commonly meant the temperature of the solid-liquid transition.

T1 sequence (O14746 whole entry): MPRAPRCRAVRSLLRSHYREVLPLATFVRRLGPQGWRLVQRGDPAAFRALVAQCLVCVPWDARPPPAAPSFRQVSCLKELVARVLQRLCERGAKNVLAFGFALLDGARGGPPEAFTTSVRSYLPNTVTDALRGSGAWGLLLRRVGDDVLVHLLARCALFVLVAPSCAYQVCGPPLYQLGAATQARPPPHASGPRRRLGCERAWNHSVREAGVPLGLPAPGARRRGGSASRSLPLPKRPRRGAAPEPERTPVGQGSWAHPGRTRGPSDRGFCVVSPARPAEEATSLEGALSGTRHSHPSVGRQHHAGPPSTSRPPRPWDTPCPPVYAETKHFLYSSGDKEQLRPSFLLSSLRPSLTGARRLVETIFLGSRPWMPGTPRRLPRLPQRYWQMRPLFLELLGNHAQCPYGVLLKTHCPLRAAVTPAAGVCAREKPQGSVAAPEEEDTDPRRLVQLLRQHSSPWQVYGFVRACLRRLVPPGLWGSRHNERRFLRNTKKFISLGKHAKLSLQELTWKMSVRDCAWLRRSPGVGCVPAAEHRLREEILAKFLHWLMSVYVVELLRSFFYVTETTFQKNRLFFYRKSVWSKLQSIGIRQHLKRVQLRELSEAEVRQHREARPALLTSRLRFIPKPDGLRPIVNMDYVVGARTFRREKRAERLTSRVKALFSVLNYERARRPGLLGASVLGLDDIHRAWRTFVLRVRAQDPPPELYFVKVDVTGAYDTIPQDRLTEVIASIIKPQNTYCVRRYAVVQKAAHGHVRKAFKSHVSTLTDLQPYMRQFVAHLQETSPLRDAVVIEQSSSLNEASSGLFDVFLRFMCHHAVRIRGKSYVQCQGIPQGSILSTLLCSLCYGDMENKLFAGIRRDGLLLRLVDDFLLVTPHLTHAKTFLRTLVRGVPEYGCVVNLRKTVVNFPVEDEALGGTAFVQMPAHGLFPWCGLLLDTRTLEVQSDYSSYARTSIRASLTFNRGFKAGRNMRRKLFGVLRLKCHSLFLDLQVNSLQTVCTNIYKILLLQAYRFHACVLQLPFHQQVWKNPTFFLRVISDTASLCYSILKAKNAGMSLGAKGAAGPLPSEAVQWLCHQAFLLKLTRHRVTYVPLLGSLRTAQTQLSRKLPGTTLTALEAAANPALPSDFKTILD
T1 sequence (O60832 2-514 partner limits assumed): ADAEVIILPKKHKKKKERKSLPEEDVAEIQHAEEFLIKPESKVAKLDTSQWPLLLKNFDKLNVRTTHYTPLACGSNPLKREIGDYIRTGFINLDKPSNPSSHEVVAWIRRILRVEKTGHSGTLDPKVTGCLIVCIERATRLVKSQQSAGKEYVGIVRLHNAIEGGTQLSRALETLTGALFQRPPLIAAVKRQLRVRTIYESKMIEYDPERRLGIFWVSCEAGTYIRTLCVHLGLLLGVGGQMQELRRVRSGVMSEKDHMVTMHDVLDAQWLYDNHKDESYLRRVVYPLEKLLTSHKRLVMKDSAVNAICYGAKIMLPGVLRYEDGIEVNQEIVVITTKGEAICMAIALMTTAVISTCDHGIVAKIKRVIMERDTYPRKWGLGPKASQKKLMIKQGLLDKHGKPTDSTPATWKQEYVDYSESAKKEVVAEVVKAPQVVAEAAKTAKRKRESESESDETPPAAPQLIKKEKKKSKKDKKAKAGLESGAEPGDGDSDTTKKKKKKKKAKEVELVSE
T1 sequence (Q9NPE3 whole entry partner): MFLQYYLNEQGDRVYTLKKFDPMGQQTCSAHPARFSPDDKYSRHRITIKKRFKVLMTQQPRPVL
T1 sequence (Q9NX24 whole entry partner): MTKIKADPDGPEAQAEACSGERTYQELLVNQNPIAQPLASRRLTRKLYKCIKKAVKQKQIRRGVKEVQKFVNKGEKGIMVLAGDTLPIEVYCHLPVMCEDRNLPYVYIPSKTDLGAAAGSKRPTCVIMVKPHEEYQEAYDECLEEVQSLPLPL
T1 sequence (Q9NY12 whole entry partner): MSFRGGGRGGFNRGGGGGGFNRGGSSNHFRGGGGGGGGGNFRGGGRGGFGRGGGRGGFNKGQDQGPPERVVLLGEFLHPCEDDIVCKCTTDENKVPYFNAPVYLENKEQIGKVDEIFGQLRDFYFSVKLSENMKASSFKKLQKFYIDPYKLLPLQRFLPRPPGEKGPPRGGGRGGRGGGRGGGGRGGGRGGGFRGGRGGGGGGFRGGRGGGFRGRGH

As to `COc1cc(OC)c2c(=O)c(OCC(=O)Nc3nnc(-c4ccccc4)o3)c(-c3cc(OC)c(OC)c(OC)c3)oc2c1` [A1, 2–(5,7-dimethoxy-4-oxo-2–(3,4,5-trimethoxyphenyl)-4H-chromen-3-yloxy)-N-(5-phenyl-1,3,4-oxadiazol-2-yl)acetamide], the melting point lay in the range of 222 to 224 °C. The half-maximal inhibitory concentration (IC50) at telomerase stood at 21.1 ± 2.28 µM.
The matching figures for `COc1cc(OC)c2c(=O)c(OCC(=O)Nc3nnc(-c4cccc(F)c4)o3)c(-c3cc(OC)c(OC)c(OC)c3)oc2c1` [A3, 2–(5,7-dimethoxy-4-oxo-2–(3,4,5-trimethoxyphenyl)-4H-chromen-3-yloxy)-N-(5–(3-fluorophenyl)-1,3,4-oxadiazol-2-yl)acetamide]: 217 to 219 °C and 2.57 ± 0.5 µM.
The matching figures for `COc1cc(OC)c2c(=O)c(OCC(=O)Nc3nnc(-c4ccccc4F)o3)c(-c3cc(OC)c(OC)c(OC)c3)oc2c1` [A4, 2–(5,7-dimethoxy-4-oxo-2–(3,4,5-trimethoxyphenyl)-4H-chromen-3-yloxy)-N-(5–(2-fluorophenyl)-1,3,4-oxadiazol-2-yl)acetamide]: 213 to 215 °C and 12.1 ± 2.01 µM.
The matching figures for `COc1cc(OC)c2c(=O)c(OCC(=O)Nc3nnc(-c4cccc(Cl)c4)o3)c(-c3cc(OC)c(OC)c(OC)c3)oc2c1` [A6, N-(5–(3-chlorophenyl)-1,3,4-oxadiazol-2-yl)-2–(5,7-dimethoxy-4-oxo-2–(3,4,5-trimethoxyphenyl)-4H-chromen-3-yloxy)acetamide]: 206 to 208 °C and 7.35 ± 1.01 µM.
With `COc1cc(OC)c2c(=O)c(OCC(=O)Nc3nnc(-c4ccccc4Cl)o3)c(-c3cc(OC)c(OC)c(OC)c3)oc2c1` [A7, N-(5–(2-chlorophenyl)-1,3,4-oxadiazol-2-yl)-2–(5,7-dimethoxy-4-oxo-2–(3,4,5-trimethoxyphenyl)-4H-chromen-3-yloxy)acetamide], the melting point lay in the range of 201 to 203 °C. The compound also displayed an IC50 on telomerase of 12.5 ± 1.88 µM.
For the compound `COc1cc(OC)c2c(=O)c(OCC(=O)Nc3nnc(-c4ccc(Br)cc4)o3)c(-c3cc(OC)c(OC)c(OC)c3)oc2c1` [A8, N-(5–(4-bromophenyl)-1,3,4-oxadiazol-2-yl)-2–(5,7-dimethoxy-4-oxo-2–(3,4,5-trimethoxyphenyl)-4H-chromen-3-yloxy)acetamide], the melting point lay within 234 to 236 °C. At telomerase, this compound had a 50% inhibitory concentration (IC50) of 1.22 ± 0.29 µM.
The matching figures for `COc1cc(OC)c2c(=O)c(OCC(=O)Nc3nnc(-c4cccc(Br)c4)o3)c(-c3cc(OC)c(OC)c(OC)c3)oc2c1` [A9, N-(5–(3-bromophenyl)-1,3,4-oxadiazol-2-yl)-2–(5,7-dimethoxy-4-oxo-2–(3,4,5-trimethoxyphenyl)-4H-chromen-3-yloxy)acetamide]: 202 to 204 °C and 2.01 ± 0.39 µM.
The matching figures for `COc1cc(OC)c2c(=O)c(OCC(=O)Nc3nnc(-c4ccccc4Br)o3)c(-c3cc(OC)c(OC)c(OC)c3)oc2c1` [A10, N-(5–(2-bromophenyl)-1,3,4-oxadiazol-2-yl)-2–(5,7-dimethoxy-4-oxo-2–(3,4,5-trimethoxyphenyl)-4H-chromen-3-yloxy)acetamide]: 199 to 201 °C and 21 ± 4.09 µM.
`COc1cc(OC)c2c(=O)c(OCC(=O)Nc3nnc(-c4ccc(C)cc4)o3)c(-c3cc(OC)c(OC)c(OC)c3)oc2c1` [A11, 2–(5,7-dimethoxy-4-oxo-2–(3,4,5-trimethoxyphenyl)-4H-chromen-3-yloxy)-N-(5-p-tolyl-1,3,4-oxadiazol-2-yl)acetamide] yielded a melting point of 225 to 227 °C. Half-maximal inhibition on telomerase (IC50) required 2.35 ± 0.48 µM.
Take `COc1cc(OC)c2c(=O)c(OCC(=O)Nc3nnc(-c4cccc(C)c4)o3)c(-c3cc(OC)c(OC)c(OC)c3)oc2c1` [A12, 2–(5,7-dimethoxy-4-oxo-2–(3,4,5-trimethoxyphenyl)-4H-chromen-3-yloxy)-N-(5-m-tolyl-1,3,4-oxadiazol-2-yl)acetamide]: the melting point lay in the range of 197 to 199 °C. At telomerase, half-maximal inhibition (IC50) required 15.3 ± 2.85 µM.
The matching figures for `COc1cc(OC)c2c(=O)c(OCC(=O)Nc3nnc(-c4ccccc4C)o3)c(-c3cc(OC)c(OC)c(OC)c3)oc2c1` [A13, 2–(5,7-dimethoxy-4-oxo-2–(3,4,5-trimethoxyphenyl)-4H-chromen-3-yloxy)-N-(5-o-tolyl-1,3,4-oxadiazol-2-yl)acetamide]: 205 to 207 °C and 25.1 ± 2.01 µM.
For `COc1cc(OC)c2c(=O)c(OCC(=O)Nc3nnc(-c4cccc([N+](=O)[O-])c4)o3)c(-c3cc(OC)c(OC)c(OC)c3)oc2c1` [A14, 2–(5,7-dimethoxy-4-oxo-2–(3,4,5-trimethoxyphenyl)-4H-chromen-3-yloxy)-N-(5–(3-nitrophenyl)-1,3,4-oxadiazol-2-yl)acetamide], the melting point fell in the range of 233 to 235 °C. Also, the concentration for half-maximal inhibition (IC50) against telomerase came to 4.11 ± 0.6 µM.
`COc1cc(OC)c2c(=O)c(OCC(=O)Nc3nnc(-c4ccccc4[N+](=O)[O-])o3)c(-c3cc(OC)c(OC)c(OC)c3)oc2c1` [A15, 2–(5,7-dimethoxy-4-oxo-2–(3,4,5-trimethoxyphenyl)-4H-chromen-3-yloxy)-N-(5–(2-nitrophenyl)-1,3,4-oxadiazol-2-yl)acetamide] registered a melting point of 204 to 206 °C. The midpoint of inhibition against telomerase, the IC50, lay at 6.98 ± 0.96 µM.
For `COc1cc(OC)c2c(=O)c(OCC(=O)Nc3nnc(-c4cccc(C(F)(F)F)c4)o3)c(-c3cc(OC)c(OC)c(OC)c3)oc2c1` [A17, 2–(5,7-dimethoxy-4-oxo-2–(3,4,5-trimethoxyphenyl)-4H-chromen-3-yloxy)-N-(5–(3-(trifluoromethyl)phenyl)-1,3,4-oxadiazol-2-yl)acetamide], the melting point lay in the range of 220 to 222 °C. For the same compound, at telomerase, the half-inhibitory concentration (IC50) was 4.11 ± 0.62 µM.
The matching figures for `COc1cc(OC)c2c(=O)c(OCC(=O)Nc3nnc(-c4ccccc4C(F)(F)F)o3)c(-c3cc(OC)c(OC)c(OC)c3)oc2c1` [A18, 2–(5,7-dimethoxy-4-oxo-2–(3,4,5-trimethoxyphenyl)-4H-chromen-3-yloxy)-N-(5–(2-(trifluoromethyl)phenyl)-1,3,4-oxadiazol-2-yl)acetamide]: 191 to 193 °C and 1.07 ± 0.2 µM.
In turn, `COc1cc(OC)c2c(=O)c(OCC(=O)Nc3nnc(-c4ccc(OC(F)(F)F)cc4)o3)c(-c3cc(OC)c(OC)c(OC)c3)oc2c1` [A19, 2–(5,7-dimethoxy-4-oxo-2–(3,4,5-trimethoxyphenyl)-4H-chromen-3-yloxy)-N-(5–(4-(trifluoromethoxy)phenyl)-1,3,4-oxadiazol-2-yl)acetamide] yielded a melting point of 230 to 232 °C. Also, the half-maximal inhibitory concentration (IC50) against telomerase was found to be 1.21 ± 0.29 µM.
`COc1cc(OC)c2c(=O)c(OCC(=O)Nc3nnc(-c4ccccc4OC(F)(F)F)o3)c(-c3cc(OC)c(OC)c(OC)c3)oc2c1` [A21, 2–(5,7-dimethoxy-4-oxo-2–(3,4,5-trimethoxyphenyl)-4H-chromen-3-yloxy)-N-(5–(2-(trifluoromethoxy)phenyl)-1,3,4-oxadiazol-2-yl)acetamide] returned a melting point of 202 to 204 °C. Also, the IC50 on telomerase turned out to be 5.11 ± 1.1 µM.
The matching figures for `COc1ccc(-c2nnc(NC(=O)COc3c(-c4cc(OC)c(OC)c(OC)c4)oc4cc(OC)cc(OC)c4c3=O)o2)cc1` [A22, 2–(5,7-dimethoxy-4-oxo-2–(3,4,5-trimethoxyphenyl)-4H-chromen-3-yloxy)-N-(5–(4-methoxyphenyl)-1,3,4-oxadiazol-2-yl)acetamide]: 239 to 241 °C and 9.11 ± 1.88 µM.
The matching figures for `COc1cccc(-c2nnc(NC(=O)COc3c(-c4cc(OC)c(OC)c(OC)c4)oc4cc(OC)cc(OC)c4c3=O)o2)c1` [A23, 2–(5,7-dimethoxy-4-oxo-2–(3,4,5-trimethoxyphenyl)-4H-chromen-3-yloxy)-N-(5–(3-methoxyphenyl)-1,3,4-oxadiazol-2-yl)acetamide]: 208 to 210 °C and 1.9 ± 0.42 µM.
The matching figures for `COc1cc(OC)c2c(=O)c(OCC(=O)Nc3nnc(-c4ccc(F)c(Cl)c4)o3)c(-c3cc(OC)c(OC)c(OC)c3)oc2c1` [A24, N-(5–(3-chloro-4-fluorophenyl)-1,3,4-oxadiazol-2-yl)-2–(5,7-dimethoxy-4-oxo-2–(3,4,5-trimethoxyphenyl)-4H-chromen-3-yloxy)acetamide]: 228 to 230 °C and 4.01 ± 0.47 µM.
As for `COc1cc(OC)c2c(=O)c(OCC(=O)Nc3nnc(-c4ccc(Cl)c(Cl)c4)o3)c(-c3cc(OC)c(OC)c(OC)c3)oc2c1` [A25, N-(5–(3,4-dichlorophenyl)-1,3,4-oxadiazol-2-yl)-2–(5,7-dimethoxy-4-oxo-2–(3,4,5-trimethoxyphenyl)-4H-chromen-3-yloxy)acetamide], the melting point was 222 to 224 °C. Further, at telomerase, the IC50 is > 60 µM.
The matching figures for `COc1cc(OC)cc(-c2nnc(NC(=O)COc3c(-c4cc(OC)c(OC)c(OC)c4)oc4cc(OC)cc(OC)c4c3=O)o2)c1` [A26, 2–(5,7-dimethoxy-4-oxo-2–(3,4,5-trimethoxyphenyl)-4H-chromen-3-yloxy)-N-(5–(3,5-dimethoxyphenyl)-1,3,4-oxadiazol-2-yl)acetamide]: 198 to 200 °C and 1.06 ± 0.11 µM.
The matching figures for `COc1cc(OC)c2c(=O)c(OCC(=O)Nc3nnc(-c4cccc5ccccc45)o3)c(-c3cc(OC)c(OC)c(OC)c3)oc2c1` [A28, 2–(5,7-dimethoxy-4-oxo-2–(3,4,5-trimethoxyphenyl)-4H-chromen-3-yloxy)-N-(5-(naphthalen-1-yl)-1,3,4-oxadiazol-2-yl)acetamide]: 238 to 240 °C and 6.17 ± 0.99 µM.
The matching figures for `COc1cc(OC)c2c(=O)c(OCC(=O)Nc3nnc(-c4ccc5c(c4)OCCO5)o3)c(-c3cc(OC)c(OC)c(OC)c3)oc2c1` [A29, N-(5–(2,3-dihydrobenzo[b][1, 4]dioxin-6-yl)-1,3,4-oxadiazol-2-yl)-2–(5,7-dimethoxy-4-oxo-2–(3,4,5-trimethoxyphenyl)-4H-chromen-3-yloxy)acetamide]: 231 to 233 °C and > 60 µM.
